Experiments:
M α1-antitrypsin = molecular target: T1, M α1-antitrypsin (Homo sapiens, UniProt P01009); test: Biochemical competition binding assay (TR-FRET), M α1-antitrypsin; details: selectivity Z over M
T1 construct: Alpha1-antitrypsin was purified from the plasma of ZZ and MM α1-antitrypsin homozygotes; from tissue; host or cells: plasma of MM homozygotes
Procedure: Alpha1-antitrypsin was purified from the plasma of ZZ and MM α1-antitrypsin homozygotes as described in Lomas et al., Biochemistry. 1993; 32:500-8. Recombinant Cys232Ser α1-antitrypsin was expressed and purified as detailed in Irving et al. Methods Enzymol. 2011; 501:421-66 and Haq et al. Biosci Rep. 2013; 33(3):e00046.
A fluorescent derivative of compound 1 was prepared by derivatizing compound 1 at its ring nitrogen atom with an Alexa Fluor 488 label via a short organic linker group.
A serial dilution of test compounds in DMSO was diluted 25-fold with assay buffer, and 2.5 μl of this intermediate dilution transferred to a black, low-volume 384-well microtitre plate (Greiner BioOne; product no. 784076). […]
Plates were sealed and incubated overnight at room temperature, or for 3 days at 4° C. then 6 hours at room temperature. […] The TR-FRET signal was read on an Envision plate reader, by excitation of Terbium at 337 nm and detection of emission at 520 nm and 495 nm.
Dissociation constants (KD) for the affinity of compounds to Z-a1AT or M-a1AT protein were derived from the pIC50 values according to the Cheng-Prusoff equation, taking into account the concentration of fluorescent ligand used in relation to its affinity as determined in independent Fluorescence Polarisation and TR-FRET experiments: KD(compound)=10^−pIC50(compound)/([…]. Compound Association Experiments

α1-antitrypsin = test: Thermal shift assay (SYPRO Orange); format: biochemical; details: 50 µM Compound 1, SYPRO Orange, versus absence
Procedure: The native state stability of serpins on addition of compounds was investigated by thermal denaturation in the presence of a 5× concentration of SYPRO Orange dye solution (Life Technologies). A final protein concentration of 0.1 mg/ml and 50 uM compound suspended in PBS was used (Nettleship et al. Methods Mol Biol. 2008; 426:299-318). The samples were heated from 25° C.-95° C. at a rate of 1° C./min in three separate experiments on an Eppendorph Mastercycler Realplex4 quantitative real-time PCR instrument, and the fluorescence in the 605±15 nm bin recorded. The midpoint of denaturation (Tm) is the temperature at which the first derivative of fluorescence intensity against temperature reaches a maximum.
Polymerisation of α1-antitrypsin occurs from a transient intermediate state known as M*, that is readily populated by the Z variant. One of the hallmarks of M* is its recognition by environment-sensitive fluorescent reporter dyes. Thermal shift assays that make use of the dye SYPRO Orange report the stability of the protein native state against heat-induced unfolding. […] Native state stability can also be probed by equilibrium unfolding using chemical denaturants, where a peak in bis-ANS fluorescence corresponds with a maximally populated unfolding intermediate.

Z α1-antitrypsin = Z α1-antitrypsin (Homo sapiens, UniProt P01009, E366K/V237A); test: Rapid refolding (non-denaturing PAGE); format: biochemical; details: snap dilution refolding
Sequence of Z α1-antitrypsin (P01009 25-418 V237A/E366K): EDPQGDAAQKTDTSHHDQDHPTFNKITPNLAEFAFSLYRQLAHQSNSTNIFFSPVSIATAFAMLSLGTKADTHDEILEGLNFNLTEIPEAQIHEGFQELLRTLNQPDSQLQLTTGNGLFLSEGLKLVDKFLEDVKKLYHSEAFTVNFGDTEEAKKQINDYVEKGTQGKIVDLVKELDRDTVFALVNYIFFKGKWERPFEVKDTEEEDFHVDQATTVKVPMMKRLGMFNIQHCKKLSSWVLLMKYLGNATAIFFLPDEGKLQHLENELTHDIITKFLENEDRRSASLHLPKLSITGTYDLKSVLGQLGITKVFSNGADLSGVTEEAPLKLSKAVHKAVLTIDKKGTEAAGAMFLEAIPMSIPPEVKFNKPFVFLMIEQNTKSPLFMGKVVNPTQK
Procedure: Refolding of α1-antitrypsin in vitro is not fully reversible, due to loss of material from amorphous aggregation, polymerisation and misfolding. These contributions cannot be readily deconvoluted by bulk spectroscopic methods and therefore refolding was evaluated by non-denaturing PAGE. M and Z α1-antitrypsin at 9.6 mg/ml were denatured in 6 M urea and 15 mM sodium phosphate pH 8.0 for 4 hours at room temperature, and 1.25 μl was snap refolded into 250 μl PBS containing 0-50 μM Compound 1 and a normalised concentration of 5% v/v DMSO. After incubation for 1 hour at room temperature samples were analysed by Coomassie-stained 3-12% w/v acrylamide Bis-Tris Native PAGE gel (Life Technologies).
Mutations that interfere with the opening of […] or that perturb its interaction with the N-terminal portion of the reactive centre loop alter the ability of serpins to inhibit target proteases. The stoichiometry of inhibition (SI) was determined for M and Z α1-antitrypsin in discontinuous experiments against a model target protease, chymotrypsin. The pre-incubation of both variants with Compound 1 led to a >98% loss of protease inhibitory activity. […]

antithrombin = antithrombin (Homo sapiens, UniProt P01008); test: Serpin inhibitory activity, antithrombin; format: biochemical; details: incubation with 50 μM
Sequence of antithrombin (P01008 33-464): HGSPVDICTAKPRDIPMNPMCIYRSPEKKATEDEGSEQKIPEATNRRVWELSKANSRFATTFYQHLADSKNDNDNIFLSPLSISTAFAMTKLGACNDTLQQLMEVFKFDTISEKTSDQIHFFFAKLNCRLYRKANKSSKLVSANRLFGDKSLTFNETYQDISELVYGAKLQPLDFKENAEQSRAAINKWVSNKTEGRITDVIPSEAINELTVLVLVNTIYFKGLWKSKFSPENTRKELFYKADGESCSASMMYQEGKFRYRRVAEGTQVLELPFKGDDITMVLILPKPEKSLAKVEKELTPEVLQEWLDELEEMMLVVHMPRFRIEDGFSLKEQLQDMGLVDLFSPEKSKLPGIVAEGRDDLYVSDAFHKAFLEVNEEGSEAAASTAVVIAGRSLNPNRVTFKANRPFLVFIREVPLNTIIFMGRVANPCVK
Source text: In order to investigate suitability of Compound 1 for progression into in vivo studies and the potential for taking forward as a clinical candidate for testing in human, Compound 1 was profiled against a panel of in vitro assays for off-targets considered predictive of potential safety liabilities. […] The measured potency of these marginal activities were at least 10-fold below the cellular activity of Compound 1 at blocking Z α1-antitrypsin polymerisation (pEC50 6.3). Loss of inhibitory activity represents a means by which possible off-target engagement with other serpins can be evaluated. However in contrast to α1-antitrypsin upon incubation with 50 μM Compound 1 the inhibitory activity of the homologues antithrombin, neuroserpin and antichymotrypsin was not affected.

[1] = Blood exposure after single PO administration in male CD-1 mouse; format: in vivo
Source text: Compound 1 had in vitro ADME properties suitable for in vivo evaluation of the pre-clinical and clinical pharmacology of the molecule.

[2] = Total and free drug in blood and liver of Z α1-antitrypsin transgenic mice; format: in vivo, mouse; details: for systemic free drug levels relative to in vitro secretion potency: duration of the dosing period
Procedure: To explore the PK-PD relationship of Compound 1, Z α1-antitrypsin transgenic animals were dosed with 100, 30 or 10 mg/kg Compound 1 three times a day and on day 6 blood and liver were harvested at 3 hr (˜Cmax) and 8 hr (Cmin) after the dose for the measurement of total and free drug in both tissues. Blood was also harvested for the measurement of monomeric Z α1-antitrypsin in plasma. Total concentrations of Compound 1 were determined by specific LC-MS/MS assay and the free unbound drug in both tissues was determined using equilibrium dialysis and used to derive unbound concentrations.

T1 sequence (P01009 25-418): as the sequence (P01009 25-418 V237A/E366K) above, with A213V, K342E counted along it

## CCC[C@@H](NC(=O)c1cccc2c1CC(=O)N2)[C@@H](O)c1cccc(F)c1C [Compound 1, N-[(1S,2R)-1-(3-fluoro-2-methylphenyl)-1-hydroxypentan-2-yl]-2-oxo-2,3-dihydro-1H-indole-4-carboxamide]
M α1-antitrypsin
  fold lower affinity for plasma-purified wild-type M α1-antitrypsin: at least 50 fold
α1-antitrypsin
  transition midpoint temperature: marked increase
Z α1-antitrypsin
  anodally-shifted migration (misfolded byproduct) of refolded Z variant: corrected at stoichiometric concentrations and above
antithrombin
  inhibitory activity of antithrombin: not affected
[1]; single PO 10 mg/kg
  DNAUCinf: 202±101
  mean dose-normalised Cmax: 58±112
[1]; single PO 30 mg/kg
  DNAUCinf: 294±47
  mean dose-normalised Cmax: 113±27
[1]; single PO 100 mg/kg
  DNAUCinf: 403±246
  mean dose-normalised Cmax: 113±27
[2]; 10 mg/kg
  systemic free drug levels relative to in vitro secretion potency: EC10-EC20
[2]; 30 mg/kg and 10 mg/kg three times a day, large part of the dosing period
  free drug levels in blood: significantly below the cellular EC50 concentrations
[2]; 30 mg/kg
  systemic free drug levels relative to in vitro secretion potency: EC20-EC30
[2]; Z α1-antitrypsin transgenic, mouse, blood, oral, 100 mg/kg three times a day, day 6, majority of the dosing period, read-out: Cmin levels of the free drug concentration in blood
  concentration at 8 h: ≥ 300 nM
[2]; transgenic mice, day 6
  free and total drug concentrations in the liver: equivalent to those in blood
